We go through three molecules from patent US12364672B2, “Esketamine for use in treating major depressive disorder” (priority 2018, dated 2025).

The subject of series [1] is C57Bl/6 strain mice. Nature of the series: Tail suspension test, single dose. To be noted: TST after 30 minutes. It is filed as in vivo, mouse. As to the method: Ketamine and esketamine HCl solutions at dose levels of 7.5, 15 and 30 mg/kg were administered intraperitoneally (ip) to groups of 10 inbred C57Bl/6 strain mice. After 30 minutes animals were exposed to the tail suspension test (TST).

The subject of series [2] is human peripheral blood lymphocytes (HPBL). As to the method: Toxicity (defined as ≥45% reduction in MI relative to the vehicle control) was evaluated at 9 concentrations, ranging from 0.0238 to 238 μg/ml, after exposure of HPBL to esketamine for 20 hours in the absence of S9 activation, or for 4 hours, either in the presence or absence of S9 activation, followed by a 16-hour recovery period.
The definitive chromosome aberration assay evaluated HPBL cells after exposure to esketamine for 20 hours in the absence of S9 activation, or for 4 hours, either in the presence of absence of S9 activation, followed by a 16-hour recovery. Positive controls for chromosomal aberrations in non-activated and S9-activated evaluations, respectively, consisted of mitomycin C (MMC, 0.6 and 0.3 μg/mL for the 4- and 20-hour exposures, respectively) and cyclophosphamide (CP, 2.5, 5, and 7.5 μg/mL). […] Initially, the doses selected for evaluation of chromosomal aberrations were 60, 120, and 238 μg/mL for the non-activated 4- and 20-hour treatment conditions; and 30, 60, and 200 μg/mL for the S9-activated 4-hour treatment condition.

The subject of series [3] is C57Bl/6 strain mice. Nature of the series: Tail suspension test, 7-day administration. Format: in vivo, mouse. As for the experimental part: Esketamine HCl solutions were administered intraperitoneally (ip) to 8 groups of 10 inbred C57Bl/6 strain mice divided to receive one of the following dose levels for 7 days:
1. saline 10 ml/kg ip once prior to TST
2. esketamine 15 mg/kg ip once on day 7 prior to TST
3. esketamine 30 mg/kg ip once on day 7 prior to TST
4. saline 10 ml/kg ip daily for 7-days
5. esketamine 7.5 mg/kg ip daily for 7-days
6. esketamine 15 mg/kg ip daily for 7-days
7. esketamine 30 mg/kg ip once on day 1+saline daily for 6 more days
8. esketamine 30 mg/kg ip once on day 1+esketamine 7.5 mg/kg for 6 more days.
30 minutes after the last treatment, the animals were exposed to the tail suspension test (TST).

Series [4] concerns healthy male and female subjects. The experiment in a line: Single dose crossover study in healthy volunteers, treatment-emergent adverse events. To be noted: all treatments. It is filed as in vivo, human. An excerpt: A total of 128 TEAEs (treatment-emergent adverse event) were reported by 15 of 16 (94%) subjects of which 79 TEAEs reported by 14 of 16 (88%) subjects were to be related to the study drug. Overall, a total of 14 of 128 TEAEs reported by 4 (25%) subjects were of moderate severity and 114 of 128 TEAEs reported by 15 (94%) subjects were of mild severity. […] The most frequently occurring adverse events (reported more than twice) were headache, dizziness, hypokinesia, feeling abnormal, fatigue, euphoric mood inappropriate affect, nausea and hyperhidrosis. Table 4 presents the frequency of the most frequently reported related TEAEs as a percentage of the subjects that experienced an adverse effect per treatment.

A further series relates to liver of Crl:CD(SD) rats. Nature of the series: In vivo single cell gel electrophoresis (comet) assay, liver. To be noted: some male animals given 75 mg/kg/day.
Series [5] concerns human peripheral blood lymphocytes (HPBL). This is another data set of the same source.

For `CNC1(c2ccccc2Cl)CCCCC1=O` (stereo not drawn) [ketamine, dl 2-(2-chlorophenyl)-2(methylamino) cyclohexanone], in the series on C57Bl/6 strain mice [1] (30 mg/kg ip), the “reduction of immobility time from the saline control group” value is listed as 71.2%.
For the molecule `CN[C@]1(c2ccccc2Cl)CCCCC1=O` [esketamine, (2S)-2-(2-Chlorophenyl)-2-(methylamino) cyclohexanone], in series [2], the “Toxicity (≥45% reduction in MI relative to the vehicle control)” value was “not observed”. In series [2] (definitive assay, non-activated 4- and 20-hour treatment, any dose (30 to 238 μg/ml)), the “cytotoxicity (45% reduction in mitotic index relative to the vehicle control)” value is “not observed”. For the same molecule, the “reduction of immobility time from the saline control group” value in the series with C57Bl/6 strain mice [1] (7.5 mg/kg ip) is given as 27.0%; in the series with C57Bl/6 strain mice [1] (15 mg/kg ip), 43.6%; in the series on C57Bl/6 strain mice [1] (30 mg/kg ip), 58.1%. Besides, the “efficacy in the TST vs 7-day saline control group” value in the series on C57Bl/6 strain mice [3] (7.5 mg/kg ip daily for 7 days (Group 5)) is “did not exert any efficacy”. Moreover, the “decrease in immobility time” value in the series on C57Bl/6 strain mice [3] (15 mg/kg ip daily for 7 days (Group 6), not statistically significant) is recorded as roughly 35%; in the series on C57Bl/6 strain mice [3] (15 mg/kg ip once, acute (printed Group 3), p<0.007) it was 38.9%. Also, the “effect on time spent in immobility” value with C57Bl/6 strain mice [3] (30 mg/kg ip once on day 1 + 7.5 mg/kg for 6 more days (Group 8) vs Group 7, p=0.02) came out at 53.4%. Further, the “immobility time 7 days after a single injection” value in the series on C57Bl/6 strain mice [3] (30 mg/kg ip once on day 1 + saline for 6 more days (Group 7)) is given as “no decline in immobility time”. Also, in series [4], the “severe TEAEs or SAEs” value is “No severe TEAEs or SAEs”. For the same molecule, in the series with liver of Crl:CD(SD) rats, the liver histopathology result is recorded as “Increased hepatocellular mitotic figures”.
`N[C@]1(c2ccccc2Cl)CCCCC1=O` [(S)-norketamine, (2S)-2-(2-Chlorophenyl)-2-(amino) cyclohexanone]: in series [5], the “Toxicity (mitotic index)” value was “not observed”.
